Data reported in patent US5462926A (Biomeasure, Inc., priority 1993, dated 1995).
Like-named read-outs stand apart in the source and are kept apart here. Where a SMILES comes first, the peptide text is derived from it. Bridges are numbered along the chain shown (N, C = ends). [ ]: non-standard residue; d: D form. 2Nal = N[C@@H](Cc1ccc2ccccc2c1)C(=O)O; d2Nal = N[C@H](Cc1ccc2ccccc2c1)C(=O)O

Columns and labels:
somatostatin receptors = target: T1, somatostatin receptors (Rattus norvegicus, UniProt P30680); assay: Somatostatin membrane receptor assay, 125I-[Tyr11]SS-14, AR 42J cell membranes; type: binding; conditions: Cheng method; table prints no unit (b360 gives nM for a Table 4 value); read-out: affinity, 125I-[Tyr11]SS-14, AR 42J Cell Membranes (somatostatin receptors)
T1 construct: endogenous in cells; host or cells: rat AR 42J pancreatic acinar tumor cell membranes
T1 sequence (P30680 whole entry): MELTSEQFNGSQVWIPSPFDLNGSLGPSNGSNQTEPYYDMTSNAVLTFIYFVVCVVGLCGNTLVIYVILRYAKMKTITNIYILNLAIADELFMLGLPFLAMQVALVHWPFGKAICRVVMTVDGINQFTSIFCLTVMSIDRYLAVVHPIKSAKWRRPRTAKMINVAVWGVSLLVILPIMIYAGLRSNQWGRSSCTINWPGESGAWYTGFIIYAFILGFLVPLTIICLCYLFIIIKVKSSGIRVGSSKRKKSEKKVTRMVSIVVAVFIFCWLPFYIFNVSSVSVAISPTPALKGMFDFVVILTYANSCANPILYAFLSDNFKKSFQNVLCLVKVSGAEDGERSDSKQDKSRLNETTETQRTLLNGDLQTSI

[1] = system: GRP receptors on rat pancreatic acini; assay: Binding of 125I-[Tyr4]bombesin to pancreatic acini; conditions: NMB-R transfected cells vs GRP-R on rat pancreatic acini
Excerpt: Nonsaturable binding was<10% of total binding in all experiments.

mu opioid receptors = target: T2, mu opioid receptors (Rattus norvegicus, UniProt P33535); assay: Mu opioid membrane assay, [3H]DAGO, rat forebrain membranes; type: binding; conditions: Cheng method; unit inferred; read-out: affinity, [3H]DAGO, Rat Forebrain membranes (mu opioid receptors)
T2 construct: rat forebrain (TRH, mu and delta opioid membrane assays); from tissue; host or cells: rat forebrain membranes
T2 sequence (P33535 whole entry): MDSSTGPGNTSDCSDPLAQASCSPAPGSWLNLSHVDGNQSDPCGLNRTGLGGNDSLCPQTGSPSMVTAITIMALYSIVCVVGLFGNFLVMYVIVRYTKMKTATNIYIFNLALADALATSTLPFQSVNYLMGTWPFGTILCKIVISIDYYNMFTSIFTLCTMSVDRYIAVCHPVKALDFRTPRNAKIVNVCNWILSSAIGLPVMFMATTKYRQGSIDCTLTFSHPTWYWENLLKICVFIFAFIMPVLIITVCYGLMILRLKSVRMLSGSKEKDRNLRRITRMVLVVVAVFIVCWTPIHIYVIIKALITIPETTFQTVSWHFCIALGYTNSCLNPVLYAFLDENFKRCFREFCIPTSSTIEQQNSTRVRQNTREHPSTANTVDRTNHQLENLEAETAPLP

GRP receptor = GRP receptor (Rattus norvegicus, UniProt P52500); assay: GRP membrane receptor assay, 125I-[Tyr4]Bn, AR 42J cell membranes; type: binding; parameters: endogenous in cells; host or cells: rat AR 42J pancreatic acinar tumor cell membranes; conditions: read-out: affinity, 125I-[Tyr4]Bn, AR 42J Cell Membranes (GRP receptors); Cheng method; unit inferred
Sequence of GRP receptor (P52500 whole entry): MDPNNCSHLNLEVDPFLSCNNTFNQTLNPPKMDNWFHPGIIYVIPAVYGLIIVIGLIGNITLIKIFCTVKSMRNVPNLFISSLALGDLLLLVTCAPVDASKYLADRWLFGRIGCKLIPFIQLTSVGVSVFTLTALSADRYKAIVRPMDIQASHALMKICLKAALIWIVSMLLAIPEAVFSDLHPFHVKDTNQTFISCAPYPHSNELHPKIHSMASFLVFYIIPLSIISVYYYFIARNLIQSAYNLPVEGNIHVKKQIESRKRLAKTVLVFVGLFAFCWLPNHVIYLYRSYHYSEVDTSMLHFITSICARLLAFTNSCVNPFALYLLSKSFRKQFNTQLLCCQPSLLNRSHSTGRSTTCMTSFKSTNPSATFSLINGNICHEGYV

NMB receptor = target: T3, NMB receptor (Rattus norvegicus, UniProt P24053); assay: [3H]inositol phosphates in NMB-R transfected cells (alone or NMB-stimulated); type: cell-based; parameters: a full length NMB-preferring bombesin receptor clone generated from rat esophagus; expressed in transfected cells; conditions: NMB-R transfected cells; for IC50 / effect at 10 μM on NMB-stimulated increase in [3H]IP: 3 nM NMB; for [3H]IP, analog Alone (10 μM): analog 10 μM alone, control 13 ± 3; for [3H]IP, analog Plus NMB (3 nM): analog 10 μM plus NMB 3 nM, NMB without analog 186 ± 58
T3 sequence (P24053 1-390): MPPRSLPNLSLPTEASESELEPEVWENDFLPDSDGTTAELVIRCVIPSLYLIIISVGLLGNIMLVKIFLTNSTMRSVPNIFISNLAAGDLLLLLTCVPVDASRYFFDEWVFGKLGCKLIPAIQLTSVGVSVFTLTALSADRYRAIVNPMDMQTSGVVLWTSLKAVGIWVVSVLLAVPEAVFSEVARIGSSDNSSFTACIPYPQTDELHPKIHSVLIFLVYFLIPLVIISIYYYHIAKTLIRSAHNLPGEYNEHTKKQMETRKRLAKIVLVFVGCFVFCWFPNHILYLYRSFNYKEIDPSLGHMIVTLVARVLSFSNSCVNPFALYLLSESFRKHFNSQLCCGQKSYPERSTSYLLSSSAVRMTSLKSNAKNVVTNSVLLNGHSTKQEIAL
Method in brief: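 BALB 3T3 cells stably expressing rat NMB receptor, labelled 48 h at 37 °C with 100 μCi/ml myo-[3H]inositol, preincubated 15 min in buffer with 10 mM LiCl, then exposed 60 min at 37 °C to agonists or to 3 nM NMB plus antagonists. Total [3H]inositol phosphates isolated by anion-exchange chromatography.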

[2] = read-out: IC50 NMB-stimulated [3H]IP, NMB Receptor, Transfected Cells
[3] = read-out: IC50 NMB-stimulated [3H]IP, Transfected Cells (values in μM)

Compound | Ki (somatostatin receptors) [nM] | fold greater affinity for NMB than GRP receptors [1] [fold] | Ki (mu opioid receptors) [nM] | Ki (GRP receptor) [nM] | IC50 (NMB receptor; [2]) [µM] | IC50 (NMB receptor; [3]) [µM] | effect at 10 μM on NMB-stimulated increase in [3H]IP (NMB receptor) | [3H]IP, analog Alone (10 μM) (NMB receptor) [dym × 10^3] | [3H]IP, analog Plus NMB (3 nM) (NMB receptor) [dym × 10^3]
CC(C)[C@@H]1NC(=O)[C@H](CCCCN)NC(=O)[C@@H](Cc2ccc3ccccc3c2)NC(=O)[C@H](Cc2ccc(O)cc2)NC(=O)[C@@H](NC(=O)[C@H](N)Cc2ccc3ccccc3c2)CSSC[C@@H](C(=O)N[C@@H](Cc2ccc3ccccc3c2)C(N)=O)NC1=O [Analog #17, H2 -D-Nal-Cys-Tyr-D-Nal-Lys-Val-Cys-Nal-NH2] (H-[d2Nal]CY[d2Nal]KVC[2Nal]-NH2; disulfide 2-7) | 570 ± 180 | > 100 | 1570 | 3710 ± 200 | 1.78 ± 0.295 | 1.2 to 1.8 | completely inhibited | 12 ± 4 | 15 ± 2
NCCCC[C@@H]1NC(=O)[C@@H](Cc2c[nH]c3ccccc23)NC(=O)[C@H](Cc2ccc(O)cc2)NC(=O)[C@@H](NC(=O)[C@H](N)Cc2ccc3ccccc3c2)CSSC[C@@H](C(=O)N[C@@H](Cc2ccc3ccccc3c2)C(N)=O)NC(=O)[C@H](Cc2ccccc2)NC1=O [Analog #13, H2 -D-Nal-Cys-Tyr-D-Trp-Lys-Phe-Cys-Nal-NH2] (H-[d2Nal]CY[dW]KFC[2Nal]-NH2; disulfide 2-7) | 194 ± 27 | > 100 | 1640 | 2150 ± 200 | 1.17 ± 0.114 | 1.2 to 1.8 | completely inhibited | 10 ± 1 | 9 ± 4
